This is an account of results in PubChem BioAssay AID504564 (Southern Research Specialized Biocontainment Screening …, 2011).

The test system of experiment [1] is M. tuberculosis H37Rv growth inhibition, no glycerol. The experiment is described as follows: Confirmatory growth inhibition assay, M. tuberculosis H37Rv, no glycerol, purified compounds (AID 504564). The note with it: for IC90: 90% growth inhibition concentration.
Assay in experiment [2]: as above
The note with it: M. tuberculosis H37Rv growth inhibition, no glycerol; at 25 µM (top of the series).

The source made the active and inactive calls. No rule for the calls is given here. Where a SMILES comes first, the peptide text is derived from it. Some results are limits rather than exact numbers.

With `Cc1ccc(C(=O)N/N=C(/CC(=O)c2cccs2)C(F)(F)F)cc1`, in experiment [1], the IC50 was 0.56 µM and the IC90 is 0.89 µM.

As to `Cc1ccc2c(c1)c(C1=c3ccccc3=NC1=O)c(O)n2C`, in experiment [1], the IC50 was 0.49 µM and the IC90 amounted to 1.5 µM.

Regarding `Cc1nn2c(NCc3ccccn3)cc(C(C)C)nc2c1-c1ccccc1`, in experiment [1], the IC50 is 0.64 µM and the IC90 came out at 1.2 µM.

For the compound `CCOC(=O)COc1ccc(/C=C2\NC(=S)N(CC)C2=O)cc1`, in experiment [1], the IC50 is 1.68 µM and the concentration for an effect of 90% (IC90) is 4.46 µM.

With `CC1CCN(C(=O)C2CCN(c3nnc(-n4cccc4)s3)CC2)CC1`, in experiment [1], the IC50 was 1.15 µM and the IC90 came out at 2.83 µM.

Regarding `Cc1ccc2ccc3ccc(C)nc3c2n1`, in experiment [1], the IC50 is 0.16 µM and the IC90 stood at 0.45 µM.

As to `COC(=O)CCc1nc2c(C#N)c(-c3ccc(Cl)cc3)ccn2n1`, in experiment [1], the IC50 is 0.84 µM and the IC90 amounted to 3.54 µM.

As for `O=C(/C=C/c1ccccc1)N1CCN(CCN2C(=O)c3cccc4cccc(c34)C2=O)CC1`, in experiment [1], the IC50 was 1.52 µM and the IC90 came to 4.02 µM.

On to `CCOC(=O)c1ccc(NC(=O)Cn2ncc(Cl)c(Cl)c2=O)cc1`, for which, in experiment [1], the IC50 was 0.09 µM and the concentration for an effect of 90% (IC90) amounted to 0.28 µM.

With `Cc1nc(SCC(=O)NC2CCCCC2)[nH]c(=O)c1C`, in experiment [1], the IC50 was 0.25 µM and the IC90 was 0.74 µM.

Turning to `COC(=O)C(Nc1nc(SCC(=O)NC2CCCCC2)nc2ccccc12)c1ccccc1` (stereo not given), the growth inhibition in experiment [2] was 3.49% (inactive).

Turning to `Nc1c(C(=O)NC2CCCCC2)nsc1C(=O)OCC(=O)NC1CCCCC1`, in experiment [1], the half-inhibitory concentration (IC50) was 0.45 µM and the IC90 amounted to 1.23 µM.

On to `CCOC(=O)C(C)Sc1ncnc2c1nnn2-c1ccc(F)cc1` (stereo not given), for which, in experiment [1], the IC50 was 0.45 µM and the IC90 came to 4.76 µM.

On to `CCc1ccc(/C=C2/C(=O)N(C)C(=S)N2CC(=O)OC)s1`, for which, in experiment [1], the IC50 was 0.46 µM and the IC90 is 1.91 µM.

Take `COC(=O)C(C)Oc1ccc(-c2nccc(-c3ccccn3)n2)cc1` (stereo not given): in experiment [1], the IC50 is 1.64 µM and the IC90 was determined as 4.32 µM.

As to `CNc1nc(SCc2ccccc2Cl)nc2c1CCCC2`, in experiment [1], the IC50 was 0.43 µM and the IC90 is 1.06 µM.

As for `Cc1cc(Br)ccc1NC(=O)c1cnc(N2CCN(c3ccccn3)CC2)c2ccccc12`, in experiment [1], the IC50 was 0.85 µM and the IC90 turned out to be 2.54 µM.

`O=C(CSc1nc2ccccc2c(=O)[nH]1)NC1CCCCC1`: in experiment [1], the IC50 is < 0.01 µM and the IC90 was < 0.01 µM.

Regarding `COC(=O)c1ccc(CNc2c(N3CCCC3)c(=O)c2=O)cc1`, in experiment [2], the growth inhibition is -5.07% (inactive).

In the case of `CC[N+](C)(CC)CCCCOc1ccc2c(c1)C(=O)c1cc(OCCCC[N+](C)(CC)CC)ccc1-2`, in experiment [1], the IC50 was 0.7 µM and the IC90 was found to be 1.2 µM.

For the compound `O=C(/C=C\c1cccs1)N1CCN(Cc2ccc3c(c2)OCO3)CC1`, in experiment [1], the half-inhibitory concentration (IC50) was 0.14 µM and the IC90 amounted to 0.33 µM.

Regarding `Cc1cccc(-c2oc3ccc(-c4ccc5c(c4)OCO5)cc3c2C#Cc2cncn2C)c1`, in experiment [1], the IC50 was 2.22 µM and the 90% effect concentration (IC90) came out at 2.93 µM.

Consider `COC(=O)c1cc(=O)n(-c2ccc(F)cc2)c(=Nc2ccc(F)cc2)s1`, for which, in experiment [1], the IC50 was 0.3 µM and the IC90 was determined as 1.1 µM.

Consider `O=C(CSc1nc2ccccc2c(=O)[nH]1)NCc1ccc(Cl)cc1`, for which, in experiment [1], the 50% inhibitory concentration (IC50) is 0.3 µM and the IC90 is 0.66 µM.

For `O=C(NCC(c1cccs1)N1CCOCC1)c1cc([N+](=O)[O-])cc([N+](=O)[O-])c1` (stereo not given), in experiment [1], the IC50 was 0.15 µM and the IC90 was found to be 0.31 µM.

With `S=c1nc[nH]c2nc[nH]c12`, in experiment [1], the IC50 was 1.03 µM and the IC90 was found to be 1.52 µM.

For the compound `O=C1C(Br)=Cc2cccc3cccc1c23`, in experiment [1], the IC50 is 0.06 µM and the IC90 stood at 0.17 µM.

For the compound `CC(=NCc1ccc2c(c1)OCO2)C1=C(O)c2ccccc2C1=O`, in experiment [1], the 50% inhibitory concentration (IC50) is 0.07 µM and the IC90 is 0.6 µM.

For the compound `Oc1ccccc1/C=N/Nc1ccnc(SCc2ccccc2)n1`, the growth inhibition in experiment [2] is 0.48% (inactive).

Regarding `CCOC(=O)COn1c2c(c3c4no[n+]([O-])c4ccc31)CCCC2`, in experiment [1], the IC50 is 1.58 µM and the IC90 was found to be 3.04 µM.

In the case of `Cc1ccc(NC(=O)C2C3/C=C\CCCCC32)cc1C` (stereo not given), in experiment [1], the IC50 was 1.87 µM and the IC90 was > 25 µM.

With `CCOC1OC(=O)C(Cl)=C1Nc1ccccc1C` (stereo not given), in experiment [1], the IC50 was 2.66 µM and the IC90 amounted to 4.41 µM.

As to `COC(=O)C1CC(=O)N(c2ccc(OCc3ccccc3Cl)cc2)C1` (stereo not given), in experiment [1], the IC50 was 0.34 µM and the IC90 turned out to be 2.63 µM.

In the case of `Cc1cccc(/C=C/C(=O)c2ccc([N+](=O)[O-])o2)c1`, in experiment [1], the 50% inhibitory concentration (IC50) is 0.02 µM and the IC90 worked out at 0.02 µM.

Regarding `c1ccc(/N=C2\N=C(Nc3ccccn3)c3ccccc32)nc1`, in experiment [1], the IC50 is 0.02 µM and the IC90 is 0.03 µM.

In the case of `COc1cc(NC(=O)C/C(C)=N/NC(=O)c2ccccn2)c(OC)cc1Cl`, in experiment [1], the IC50 is 2.06 µM and the IC90 amounted to 6.77 µM.

For the compound `CCOC(=O)CNC(=O)[C@H](Cc1ccccc1)NC(=O)OCc1ccccc1` (HELM PEPTIDE1{[O=C(OCc1ccccc1)[*:2]].F.G.[CCO[*:1]]}$$$$V2.0), in experiment [1], the IC50 is 1.08 µM and the IC90 was 2.5 µM.

With `CC(C)NC(=O)c1sc(=S)n2c1[nH]c(=O)c1ccc(C(=O)NCCc3ccc(Cl)cc3)cc12`, in experiment [1], the IC50 is 0.21 µM and the IC90 stood at 0.43 µM.

On to `CCC(C)Nc1ccc(NC(C)CC)cc1` (stereo not given), for which, in experiment [1], the IC50 was 0.59 µM and the concentration for an effect of 90% (IC90) came out at 0.99 µM.
